In patent US20100098640A1, “Multidentate Pyrone-Derived Chelators for Medicinal Imaging and Chelation” (priority 2005, published 2010):

How the values were obtained:
Format in all cases: physicochemical
[1] = Protonation constants of free ligands by potentiometric titration; conditions: 1.0 M aqueous NaCl, ligand ~0.5 mM
Description: Thermodynamic evaluation of the new ligands can include potentiometric determination of the ligand protonation constants and spectrophotometric evaluation of the Gd^3+, Ca^2+, and Zn^2+ stability constants. In order to determine the stability of these ligands with Gd^3+, first the protonation constants for each ligand is determined. The protonation constants can be measured by potentiometric titration and the assignment of these protonations can be made using ^1H NMR titrations. ^1H NMR titration experiments use changes in the chemical shift of the non-exchangeable protons on the ligand to assign the sites of protonation; data is plotted as chemical shift vs. pD.
The experimental protocols and equipment used have been previously described (Johnson, A. R., et al. Inorg. Chem. 2000, 39, 2652). To determine the protonation constants of the free ligands, approximately 15 mg of ligand was dissolved in 50 mL of a 1.0 M aqueous solution of NaCl in a titration vessel (ligand concentration ˜0.5 mM). Protonation constants of TRENMAM and TREN-Me-MAM were examined by potentiometric (pH vs total proton concentration) titrations by using Hyperquad (Gans, P. et al. Talanta 1996, 43, 1739) for data analysis. Each protonation constant determination is the result from at least three experiments (where each experiment consists of two titrations, the first one titrated with acid, followed by a reverse titration with base). The equilibration time between additions of titrant was 90 seconds.

[2] = Competition batch titration with DTPA (pGd); conditions: pH 7.4, 24 h equilibration, three titrations
Text: The affinity of these ligands for protons and metal ions in solution is described in terms of formation constants. The protonation of a metal complex can be subsequently calculated from the appropriate cumulative constants. The stability of metal complexes can be discussed in terms of the pM value (in this case pGd) which is expressed as
Although a pM value can be calculated under various conditions (e.g. different pH's or relative concentrations), in the context of a biological scenario the following parameters are commonly used for comparison: [M]=1 μM, [L]=10 μM, and pH=7.4.
The stability of the heteropodate ligands with Gd^3+, Ca^2+, and Zn^2+ can be measured by spectrophotometric titration. The strong UV absorptions (π→π*) of the pyrone rings of the ligands can be monitored in order to follow the complexation reaction (FIG. 2). The titration can be performed in a batch mode, collecting between 20-40 spectra, monitored between 200-500 nm for each titration of a ligand in the presence of an equal molar amount of Gd^3+, Ca^2+ or Zn^2+. […]

Aqueous solubility = experiment: Aqueous solubility

| Compound | log K1 (protonation constant) [1] | log K2 (protonation constant) [1] | log K3 (protonation constant) [1] | log K4 (protonation constant) [1] | pGd [2] | water solubility compared to the TREN-Me-MAM ligand (Aqueous solubility) |
| --- | --- | --- | --- | --- | --- | --- |
| O=C(NCCN(CCNC(=O)c1occc(=O)c1O)CCNC(=O)c1occc(=O)c1O)c1occc(=O)c1O [TRENMAM] | 7.33(1) | 5.76(1) | 4.97(2) | 3.84(2) | 19.27±0.08 | improved water solubility |
| tris(aminoethyl)amine)methylmaltolamide [TREN-Me-MAM] | 7.91(1) | 6.30(2) | 5.48(2) | 4.46(2) | 19.03±0.04 | – |
